≈ marks a conversion by molar mass, not a printed value. Calls of active or inactive are those of the source. The rule behind the calls is not given here.
How the values were obtained:
Mus musculus [1] = experiment: Anticonvulsant activity in Kunming mouse assessed as reduction in MES-induced seizure at 30 to 300 mg/kg, ip measured after 30 mins; format: functional, organism-based
Mus musculus [2] = experiment: Anticonvulsant activity in Kunming mouse assessed as reduction in ScPTZ-induced seizure at 30 mg/kg, ip administered before 30 mins of ScPTZ stimulation; format: functional, organism-based
Mus musculus [3] = experiment: Anticonvulsant activity in Kunming mouse assessed as reduction in ScPTZ-induced seizure at 100 mg/kg, ip administered before 30 mins of ScPTZ stimulation; format: functional, organism-based
Mus musculus [4] = experiment: Anticonvulsant activity in Kunming mouse assessed as reduction in ScPTZ-induced seizure at 300 mg/kg, ip administered before 30 mins of ScPTZ stimulation; format: functional, organism-based
Cortical neurone = experiment: Antiepileptic actvity in C57BL/6 mouse Primary cortical neuron assessed as reduction in 4-AP-induced excitability measured for 8 mins by Fluo-8/AM staining based FLIPR assay; format: functional, cell-based; details: C57BL/6, Cortical neurone
[5] = Neurotoxicity in ip dosed Kunming mouse assessed as reduction in equilibrium measured after 30 mins by rotarod test; format: toxicity, organism-based; details: in vivo
Mus musculus [6] = experiment: Anticonvulsant activity in ip dosed Kunming mouse assessed as reduction in ScPTZ-induced seizure administered before 30 mins of ScPTZ stimulation; format: functional; details: 0.5 h
[7] = Protective index, ratio of TD50 for neurotoxicity in ip dosed Kunming mouse to ED50 for anticonvulsant activity in ip dosed Kunming mouse; format: toxicity, organism-based; details: in vivo, read-out: Ratio TD50/ED50
Mus musculus [8] = experiment: Anticonvulsant activity in ip dosed CF-1 mouse assessed as reduction in ScPTZ-induced seizure administered before 30 mins of ScPTZ stimulation; format: functional; details: CF-1, ip, 0.5 h
[9] = molecular target: T1, GABA-A receptor; alpha-1/beta-2/gamma-2 (Homo sapiens) (UniProt P14867+P47870+P18507); experiment: Activation of recombinant human GABA receptor alpha1beta2gamma2 expressed in CHO cells and measured for 120 secs by FMP dye based FLIPR assay; format: cell-based
[10] = molecular target: T1, GABA-A receptor; alpha-1/beta-2/gamma-2 (Homo sapiens); experiment: (§1) Activation of recombinant human GABA receptor alpha1beta2gamma2 expressed in CHO cells in presence of GABA and measured for 120 secs by FMP dye based FLIPR assay; format: cell-based
[11] = molecular target: T2, GABA-A receptor; alpha-1/beta-2/gamma-2 (Homo sapiens, UniProt P14867+P18507+P47870); experiment: as §1; format: cell-based
T2 sequence (P14867 whole entry): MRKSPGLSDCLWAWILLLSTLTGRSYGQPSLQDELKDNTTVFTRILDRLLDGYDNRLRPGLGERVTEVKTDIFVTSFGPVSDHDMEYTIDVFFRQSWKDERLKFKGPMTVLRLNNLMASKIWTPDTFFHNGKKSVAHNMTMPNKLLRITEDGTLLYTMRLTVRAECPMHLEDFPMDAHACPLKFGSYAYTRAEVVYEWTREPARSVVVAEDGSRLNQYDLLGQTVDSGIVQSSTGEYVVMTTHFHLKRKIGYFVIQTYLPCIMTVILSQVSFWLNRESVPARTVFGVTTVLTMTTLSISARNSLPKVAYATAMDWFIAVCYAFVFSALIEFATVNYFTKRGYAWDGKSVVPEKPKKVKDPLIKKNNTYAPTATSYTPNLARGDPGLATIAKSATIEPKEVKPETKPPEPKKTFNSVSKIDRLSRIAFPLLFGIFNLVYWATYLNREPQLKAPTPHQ
T2 sequence (P47870 whole entry): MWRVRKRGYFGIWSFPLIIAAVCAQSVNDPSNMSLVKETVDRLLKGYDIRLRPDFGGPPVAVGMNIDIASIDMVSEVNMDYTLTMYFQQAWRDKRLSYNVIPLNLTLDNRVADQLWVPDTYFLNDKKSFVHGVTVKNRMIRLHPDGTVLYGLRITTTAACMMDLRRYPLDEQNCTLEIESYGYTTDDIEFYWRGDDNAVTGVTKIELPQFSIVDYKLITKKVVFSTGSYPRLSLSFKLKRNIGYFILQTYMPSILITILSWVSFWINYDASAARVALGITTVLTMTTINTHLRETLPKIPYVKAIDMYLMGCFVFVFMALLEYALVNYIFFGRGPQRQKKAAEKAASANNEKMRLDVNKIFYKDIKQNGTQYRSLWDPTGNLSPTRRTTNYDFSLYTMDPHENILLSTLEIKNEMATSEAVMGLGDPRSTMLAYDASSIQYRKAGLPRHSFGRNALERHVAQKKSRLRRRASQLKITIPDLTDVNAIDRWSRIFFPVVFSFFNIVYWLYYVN
T2 sequence (P18507 whole entry): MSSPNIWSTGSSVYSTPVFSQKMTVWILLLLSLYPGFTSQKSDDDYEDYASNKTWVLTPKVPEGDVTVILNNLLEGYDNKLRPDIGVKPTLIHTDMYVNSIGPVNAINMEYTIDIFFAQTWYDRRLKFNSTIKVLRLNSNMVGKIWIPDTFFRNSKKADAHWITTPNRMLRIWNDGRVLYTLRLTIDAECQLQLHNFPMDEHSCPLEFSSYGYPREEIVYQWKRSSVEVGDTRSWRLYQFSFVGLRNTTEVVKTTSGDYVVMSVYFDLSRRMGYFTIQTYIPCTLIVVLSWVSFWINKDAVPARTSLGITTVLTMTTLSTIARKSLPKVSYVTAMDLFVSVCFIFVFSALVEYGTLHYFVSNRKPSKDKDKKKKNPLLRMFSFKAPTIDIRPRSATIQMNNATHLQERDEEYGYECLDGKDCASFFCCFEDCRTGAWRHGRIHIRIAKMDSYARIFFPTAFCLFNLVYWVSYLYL

[12] = molecular target: T2, GABA-A receptor; alpha-1/beta-2/gamma-2; experiment: Positive allosteric modulation of recombinant human GABA receptor alpha1beta2gamma2 expressed in CHO cells at 30 uM in presence of GABA and measured for 120 secs by FMP dye based FLIPR assay (reference value: 0.25 +/- 0.03 uM); format: cell-based
Mus musculus [13] = organism: Mus musculus; experiment: Inhibition of sodium channel in C57BL/6 mouse primary cortical neurons at 10 uM by manual patch clamp electrophysiology method
Mus musculus [14] = organism: Mus musculus; experiment: Inhibition of sodium channel in C57BL/6 mouse Primary cortical neurons at 100 uM by manual patch clamp electrophysiology method
[15] = Solubility of compound in water; format: physicochemical
[16] = Solubility of compound in DMSO; format: physicochemical

Compound | Activity (Mus musculus [1]) | Activity (Mus musculus [2]) | Activity (Mus musculus [3]) | Activity (Mus musculus [4]) | IC50 (Cortical neurone) | other results
Cc1ccc(Cc2cc(=O)n3nc(-c4ccccc4)nc3[nH]2)cc1 | inactive | inactive | inactive | inactive | – | –
O=c1cc(Cc2ccc(Cl)cc2)[nH]c2nc(Cc3ccc(F)cc3)nn12 | inactive | inactive | Active | Active | 3650 nM | –
O=c1cc(-c2ccccc2)[nH]c2nc(Cc3ccc(F)cc3)nn12 | inactive | Active | Active | Active | 2520 nM | TD50 at 0.5 h [5]: 261 mg/kg; ED50 (Mus musculus [6]): 71.6 mg/kg; selectivity ratio [7]: 3.67
Cc1ccc(-c2nc3[nH]c(Cc4ccc(F)cc4)cc(=O)n3n2)cc1 | inactive | inactive | inactive | inactive | – | –
Cc1ccc(Cc2cc(=O)n3nc(-c4ccc(C)cc4)nc3[nH]2)cc1 | inactive | inactive | inactive | inactive | – | –
CCC1(c2ccccc2)C(=O)NC(=O)NC1=O [PHENOBARBITAL] | – | – | – | – | – | ED50 (Mus musculus [8]): 13.2 mg/kg
CCCCCc1nc2[nH]c(-c3ccc(Cl)cc3)cc(=O)n2n1 | inactive | Active | Active | inactive | 8250 nM | –
Cc1ccc(Cc2nc3[nH]c(-c4ccccc4)cc(=O)n3n2)cc1 | inactive | Active | Active | Active | 1150 nM | TD50 at 0.5 h [5]: 281 mg/kg; ED50 (Mus musculus [6]): 65.8 mg/kg; selectivity ratio [7]: 4.26
O=c1cc(Cc2ccc(Cl)cc2)[nH]c2nc(-c3ccccc3)nn12 | inactive | Active | Active | Active | 452 nM | Activity [9]: inactive; TD50 at 0.5 h [5]: 548 mg/kg; ED50 (Mus musculus [6]): 31.8 mg/kg; selectivity ratio [7]: 17.2; Activity [10]: Dose-dependent effect; EC50 [11]: 3080 nM; EC50 [12]: 200 nM; inhibition (Mus musculus [13]): inactive; inhibition (Mus musculus [14]): inactive
CCCCCCc1nc2[nH]c(-c3ccccc3)cc(=O)n2n1 | inactive | inactive | inactive | inactive | – | –
O=c1cc(Cc2ccccc2)[nH]c2nc(Cc3ccc(F)cc3)nn12 | inactive | inactive | inactive | inactive | – | –
CCCCCCc1nc2[nH]c(-c3ccc(Cl)cc3)cc(=O)n2n1 | inactive | Active | Active | Active | 8720 nM | –
Cc1ccc(-c2nc3[nH]c(Cc4ccc(Cl)cc4)cc(=O)n3n2)cc1 | inactive | inactive | inactive | Active | – | –
O=c1cc(Cc2ccccc2)[nH]c2nc(Cc3ccc(Cl)cc3)nn12 | inactive | inactive | Active | inactive | 4280 nM | –
O=c1cc(-c2ccccc2)[nH]c2nc(Cc3ccccc3)nn12 | inactive | Active | Active | Active | 1310 nM | –
CCCCc1nc2[nH]c(-c3ccc(Cl)cc3)cc(=O)n2n1 | inactive | inactive | inactive | inactive | – | –

Compound | Activity (Mus musculus [1]) | Activity (Mus musculus [2]) | Activity (Mus musculus [3]) | Activity (Mus musculus [4]) | IC50 (Cortical neurone) | other results
O=c1cc(-c2ccc(Cl)cc2)[nH]c2nc(-c3ccccc3)nn12 | – | – | – | – | 2350 nM | solubility [15]: 14.3 µg/mL (≈ 0.0443 mM); solubility [16]: 3000 µg/mL (≈ 9.29 mM)
CCCCc1nc2[nH]c(-c3ccccc3)cc(=O)n2n1 | inactive | inactive | inactive | inactive | – | –
NC(=O)N1c2ccccc2C=Cc2ccccc21 [CARBAMAZEPINE] | – | – | – | – | – | ED50 (Mus musculus [8]): > 100 mg/kg
Cc1ccc(Cc2nc3[nH]c(-c4ccc(Cl)cc4)cc(=O)n3n2)cc1 | inactive | inactive | inactive | inactive | 5440 nM | –
O=c1cc(Cc2ccc(Cl)cc2)[nH]c2nc(Cc3ccccc3)nn12 | inactive | inactive | inactive | Active | – | –
CCCC(CCC)C(=O)O [VALPROIC ACID] | – | – | – | – | – | ED50 (Mus musculus [8]): 149 mg/kg
Cc1ccc(Cc2cc(=O)n3nc(Cc4ccccc4)nc3[nH]2)cc1 | inactive | inactive | inactive | inactive | – | –
O=c1cc(-c2ccc(Cl)cc2)[nH]c2nc(Cc3ccccc3)nn12 | inactive | inactive | inactive | inactive | – | –
Cc1ccc(-c2nc3[nH]c(-c4ccccc4)cc(=O)n3n2)cc1 | – | – | – | – | 3210 nM | solubility [15]: 14.3 µg/mL (≈ 0.0473 mM); solubility [16]: 3000 µg/mL (≈ 9.92 mM)
CCCCCc1nc2[nH]c(-c3ccccc3)cc(=O)n2n1 | inactive | inactive | inactive | inactive | – | –
O=C1NC(=O)C(c2ccccc2)(c2ccccc2)N1 [PHENYTOIN] | – | – | – | – | – | ED50 (Mus musculus [8]): > 300 mg/kg
CCCCCCCc1nc2[nH]c(-c3ccccc3)cc(=O)n2n1 | inactive | inactive | inactive | inactive | – | –
Cc1ccc(Cc2nc3[nH]c(Cc4ccccc4)cc(=O)n3n2)cc1 | inactive | Active | Active | Active | 2470 nM | –
CCCCCCCc1nc2[nH]c(-c3ccc(Cl)cc3)cc(=O)n2n1 | inactive | inactive | inactive | inactive | – | –
O=c1cc(-c2ccccc2)[nH]c2nc(Cc3ccc(Cl)cc3)nn12 | inactive | Active | Active | Active | 1830 nM | TD50 at 0.5 h [5]: 211 mg/kg; ED50 (Mus musculus [6]): 61.1 mg/kg; selectivity ratio [7]: 3.45
O=c1cc(Cc2ccccc2)[nH]c2nc(Cc3ccccc3)nn12 | inactive | inactive | inactive | inactive | – | –

From ChEMBL document CHEMBL4312021, “Discovery of [1,2,4]-triazolo [1,5-a]pyrimidine-7(4H)-one derivatives as positive modulators of GABAA1 receptor with potent anticonvulsant activity and low toxicity” (Eur J Med Chem, 2020)
